Common to all, as to assay type: in vivo
The subject of assay [1] is wild oat (Avena fatua L.). In words: Test Example 2: pot test, soil treatment, visual growth inhibition. Particulars: 28th day after treatment, read-out: Growth inhibition rate (%) of wild oat Measured value. On the procedure: Upland field soil was put into a 1/500,000 ha pot, and seeds of wild oat (Avena fatua L.) were sown. On the next day, predetermined amounts of ONEHOPE NYUZAI (tradename), Click (tradename) and SC formulation containing mesotrione as an active ingredient (tradename: Callisto, manufactured by Syngenta) were diluted with water (in an amount corresponding to 1,000 L/ha) and applied for soil treatment by a small sprayer.
On the 28th day after treatment, the state of growth of the wild oat was visually observed to determine the growth inhibition rate (%). The growth inhibition rate (%) (measured value) and the growth inhibition rate (%) calculated in the same manner as in the above Test Example 1 are shown in Table 2.

Assay [2] deals with wild oat (Avena fatua L.). As to the kind of experiment: Test Example 4: pot test, soil treatment, visual growth inhibition. The conditions noted are these: soil treatment, 28th day after treatment, read-out: Growth inhibition rate (%) of wild oat Measured value. On the procedure:
Upland field soil was put into a 1/1,000,000 ha pot, and seeds of wild oat (Avena fatua L.) were sown. On the next day, predetermined amounts of ONEHOPE NYUZAI (tradename), Click (tradename) and a wettable powder containing bicyclopyrone prepared in accordance with a conventional formulation method were diluted with water (in an amount corresponding to 1,000 L/ha) and applied for soil treatment by a small sprayer.
On the 28th day after treatment, the state of growth of the wild oat was visually observed to determine the growth inhibition rate (%). The growth inhibition rate (%) (measured value) and the growth inhibition rate (%) calculated in the same manner as in the above Test Example 1 are shown in Table 4.

Assay [3] concerns Japanese millet (Echinochloa utilis Ohwi et Yabuno). In words: Test Example 5: pot test, soil treatment, visual growth inhibition. The conditions noted are these: soil treatment, 28th day after treatment, read-out: Growth inhibition rate (%) of Japanese millet Measured value. On the procedure: Upland field soil was put into a 1/300,000 ha pot, and seeds of Japanese millet (Echinochloa utilis Ohwi et Yabuno) were sown. On the next day, predetermined amounts of ONEHOPE NYUZAI (tradename), Click (tradename) and SC formulation containing topramezone as an active ingredient (tradename: Clio, manufactured by BASF) were diluted with water (in an amount corresponding to 1,000 L/ha) and applied for soil treatment by a small sprayer.
On the 28th day after treatment, the state of growth of the Japanese millet was visually observed to determine the growth inhibition rate (%). The growth inhibition rate (%) (measured value) and the growth inhibition rate (%) calculated in the same manner as in the above Test Example 1 are shown in Table 5.

Assay [4] relates to prickly sida (Sida spinosa L.). In words: Test Example 10: pot test, soil treatment, visual growth inhibition. The conditions noted are these: soil treatment, 28th day after treatment, read-out: Growth inhibition rate (%) of prickly sida Measured value. On the procedure: Upland field soil was put into a 1/300,000 ha pot, and seeds of prickly sida (Sida spinosa L.) were sown. On the next day, predetermined amounts of ONEHOPE NYUZAI (tradename), Click (tradename), Spectrum (tradename), Callisto (tradename) and Clio (tradename) were diluted with water (in an amount corresponding to 1,000 L/ha) and applied for soil treatment by a small sprayer.
On the 28th day after treatment, the state of growth of the prickly sida was visually observed to determine the growth inhibition rate (%). The growth inhibition rate (%) (measured value) and the growth inhibition rate (%) calculated in the same manner as in the above Test Example 1 are shown in Table 10.

For assay [5], the system named is annual ragweed (Ambrosia artemisiifolia L.). As to the kind of experiment: Test Example 11: pot test, soil treatment, visual growth inhibition. Particulars: soil treatment, 28th day after treatment, read-out: Growth inhibition rate (%) of annual ragweed Measured value. On the procedure:
Upland field soil was put into a 1/300,000 ha pot, and seeds of annual ragweed (Ambrosia artemisiifolia L.) were sown. On the next day, predetermined amounts of ONEHOPE NYUZAI (tradename), Click (tradename), Mikado (tradename) and a wettable powder containing bicyclopyrone prepared in accordance with a conventional formulation method were diluted with water (in an amount corresponding to 1,000 L/ha) and applied for soil treatment by a small sprayer.
On the 28th day after treatment, the state of growth of the annual ragweed was visually observed to determine the growth inhibition rate (%). The growth inhibition rate (%) (measured value) and the growth inhibition rate (%) calculated in the same manner as in the above Test Example 1 are shown in Table 11.

The subject of assay [6] is common cocklebur (Xanthium strumarium L.). As to the kind of experiment: Test Example 12: pot test, foliar treatment, visual growth inhibition. Particulars: foliar treatment at 4.2 to 4.3-leaf stage, 28th day after treatment, read-out: Growth inhibition rate (%) of common cocklebur Measured value. On the procedure: Upland field soil was put into a 1/1,000,000 ha pot, and seeds of common cocklebur (Xanthium strumarium L.) were sown. When the common cocklebur reached 4.2 to 4.3-leaf stage, predetermined amounts of ONEHOPE NYUZAI (tradename), Click (tradename) and water dispersible granules containing flufenacet as an active ingredient (tradename: Cadou, manufactured by Bayer CropScience) were diluted with water (in an amount corresponding to 1,000 L/ha) and applied for foliar treatment by a small sprayer.
On the 28th day after treatment, the state of growth of the common cocklebur was visually observed to determine the growth inhibition rate (%). The growth inhibition rate (%) (measured value) and the growth inhibition rate (%) calculated in the same manner as in the above Test Example 1 are shown in Table 12.

Assay [7] deals with Japanese millet (Echinochloa utilis Ohwi et Yabuno). As to the kind of experiment: Test Example 13: pot test, soil and foliar treatment, visual growth inhibition. The conditions noted are these: soil treatment and foliar treatment, 28th day after treatment, read-out: Growth inhibition rate (%) of Japanese millet Measured value. On the procedure:
Upland field soil was put into a 1/1,000,000 ha pot, and seeds of Japanese millet (Echinochloa utilis Ohwi et Yabuno) were sown. When the Japanese millet reached 3.8 to 4.0-leaf stage, seeds of Japanese millet were further sown in the same pot. On the next day, predetermined amounts of ONEHOPE NYUZAI (tradename), Click (tradename) and a wettable powder containing bicyclopyrone prepared in accordance with a conventional formulation method were diluted with water (in an amount corresponding to 1,000 L/ha) and applied for soil treatment and for foliar treatment by a small sprayer.
On the 28th day after treatment, the state of growth of the Japanese millet was visually observed to determine the growth inhibition rate (%). The growth inhibition rate (%) (measured value) and the growth inhibition rate (%) calculated in the same manner as in the above Test Example 1 are shown in Table 13.

Regarding `COc1cc(OC)nc(NC(=O)NS(=O)(=O)c2ncccc2C(=O)N(C)C)n1` [Nicosulfuron, 2-(4,6-dimethoxypyrimidin-2-ylcarbamoylsulfamoyl)-N,N-dimethylnicotinamide], the inhibition at 30 g/ha turned out to be 70% in assay [1] (30 g/ha), 30% in assay [2] (30 g/ha) and 40% in assay [3] (30 g/ha). For the same compound, the inhibition at 10 g/ha in assay [4] (10 g/ha) stood at 20%. For the same compound, the inhibition at 100 g/ha worked out at 40% in assay [4] (100 g/ha) and 0% in assay [5] (100 g/ha). The results for the inhibition at 15 g/ha in assay [6] (15 g/ha) and in assay [7] (15 g/ha) were 80% and 55%, respectively.
As for `CCNc1nc(Cl)nc(NC(C)(C)C)n1` [Terbuthylazine, N^2-tert-butyl-6-chloro-N^4-ethyl-1,3,5-triazine-2,4-diamine], the inhibition at 500 g/ha amounted to 60% in assay [1] (500 g/ha), 15% in assay [2] (500 g/ha) and 50% in assay [3] (500 g/ha). Moreover, the inhibition at 200 g/ha in assay [4] (200 g/ha) came out at 30%; in assay [5] (200 g/ha), 20%. Besides, in assay [4] (2000 g/ha), the inhibition at 2000 g/ha was determined as 80%. Also, the results for the inhibition at 250 g/ha in assay [6] (250 g/ha) and in assay [7] (250 g/ha) were 30% and 0%, respectively.

For orientation: inhibition means the relative decrease from the control value, in per cent.

Values taken from patent EP2832223A1, “HERBICIDAL COMPOSITION” (Ishihara Sangyo Kaisha, Ltd., priority 2012, dated 2013).
